Columns and labels:
Assay type in all cases: biochemical
[1] = target: T1, MMP-1FL (full-length interstitial collagenase) (Homo sapiens, UniProt P03956); assay: Thiopeptolide hydrolysis inhibition assay, MMP-1FL; settings: thiopeptolide substrate, HEPES pH 7.0, 22° C.
T1 sequence (P03956 100-469): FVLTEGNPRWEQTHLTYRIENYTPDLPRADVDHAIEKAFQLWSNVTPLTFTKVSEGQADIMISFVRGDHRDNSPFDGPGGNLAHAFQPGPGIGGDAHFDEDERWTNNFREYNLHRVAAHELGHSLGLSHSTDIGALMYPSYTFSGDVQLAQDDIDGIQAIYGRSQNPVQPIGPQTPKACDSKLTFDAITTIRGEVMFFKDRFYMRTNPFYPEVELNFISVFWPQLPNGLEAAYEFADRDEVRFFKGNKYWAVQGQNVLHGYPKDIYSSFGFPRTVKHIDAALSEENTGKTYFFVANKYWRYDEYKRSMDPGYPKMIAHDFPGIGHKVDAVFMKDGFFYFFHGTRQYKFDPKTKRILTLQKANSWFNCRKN
Source text: (§1) The assays measure the amount by which a test compound reduces the hydrolysis of a thiopeptolide substrate catalyzed by a matrix metalloproteinase enzyme. Such assays are described in detail by Ye et al., Biochemistry, 1992;31(45):11231-11235, hereby incorporated herein by reference.
(§2) Thiopeptolide substrates show virtually no decomposition or hydrolysis at or below neutral pH in the absence of a matrix metalloproteinase enzyme. A typical thiopeptolide substrate commonly utilized for assays is Ac-Pro-Leu-Gly-thioester-Leu-Leu-Gly-OEt. A 100 μL assay mixture will contain 50 mM of N-2-hydroxyethylpiperazine-N′-2-ethanesulfonic acid buffer (“HEPES”) at pH 7.0, 10 mM CaCl2, 100 μM thiopeptolide substrate, and 1 mM 5,5′-dithio-bis-(2-nitrobenzoic acid) (DTNB). The thiopeptolide substrate concentration may be varied from, for example, 10 to 800 μM, in order to obtain Km and Kcat values. The change in absorbance at 405 nm is monitored on a Thermo Max microplate reader (Molecular Devices, Menlo Park, Calif.) at room temperature (22° C.). The calculation of the amount of hydrolysis of the thiopeptolide substrate is based on E412=13600 M^−1 cm^−1 for the DTNB-derived product 3-carboxy-4-nitrothiophenoxide. Assays are carried out with and without matrix metalloproteinase inhibitor compounds, and the amount of hydrolysis is compared for a determination of inhibitory activity of the test compounds.
(§3) Several representative compounds have been evaluated for their ability to inhibit various matrix metalloproteinase enzymes. In Table 1, MMP-1FL refers to full-length interstitial collagenase; MMP-2FL refers to full-length Gelatinase A; MMP-3CD refers to the catalytic domain of stromelysin-1; MMP-7FL refers to full-length matrilysin; MMP-9FL refers to full-length Gelatinase B; MMP-13CD refers to the catalytic domain of collagenase 3; and MMP-14CD refers to the catalytic domain of MMP-14. Test compounds were evaluated at various concentrations, in order to determine their respective IC50 values, the micromolar concentration of compound required to cause a 50% inhibition of the catalytic activity of the respective enzyme.

[2] = target: MMP-3CD (catalytic domain of stromelysin-1) (Homo sapiens, UniProt P08254); assay: Thiopeptolide hydrolysis inhibition assay, MMP-3CD; settings: thiopeptolide substrate, MES buffer pH 6.0
Source text: as §1, §2
It should be appreciated that the assay buffer used with MMP-3CD is 50 mM of N-morpholinoethanesulfonate (“MES”) at pH 6.0 rather than the HEPES buffer at pH 7.0 described above.
as §3

[3] = target: MMP-9FL (full-length Gelatinase B) (Homo sapiens, UniProt P14780); assay: Thiopeptolide hydrolysis inhibition assay, MMP-9FL; settings: thiopeptolide substrate, HEPES pH 7.0, 22° C.
Source text: as §1, §2, §3

[4] = target: T2, MMP-2FL (full-length Gelatinase A) (Homo sapiens, UniProt P08253); assay: Thiopeptolide hydrolysis inhibition assay, MMP-2FL; settings: thiopeptolide substrate, HEPES pH 7.0, 22° C.
T2 sequence (P08253 110-660): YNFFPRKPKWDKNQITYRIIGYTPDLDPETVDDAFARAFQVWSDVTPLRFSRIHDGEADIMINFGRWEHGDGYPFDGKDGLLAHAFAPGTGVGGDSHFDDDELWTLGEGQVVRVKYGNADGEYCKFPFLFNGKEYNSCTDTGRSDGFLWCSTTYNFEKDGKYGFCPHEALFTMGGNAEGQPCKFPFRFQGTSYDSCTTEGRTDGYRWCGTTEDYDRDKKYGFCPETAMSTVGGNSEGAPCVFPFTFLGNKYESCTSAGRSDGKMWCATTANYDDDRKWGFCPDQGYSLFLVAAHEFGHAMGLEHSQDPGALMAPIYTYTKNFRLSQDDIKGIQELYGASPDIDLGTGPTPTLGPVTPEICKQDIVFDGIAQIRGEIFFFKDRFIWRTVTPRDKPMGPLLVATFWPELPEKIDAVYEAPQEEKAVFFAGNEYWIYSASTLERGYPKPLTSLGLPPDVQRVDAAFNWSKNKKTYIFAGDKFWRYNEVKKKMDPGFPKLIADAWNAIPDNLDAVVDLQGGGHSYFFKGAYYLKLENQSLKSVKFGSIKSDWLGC
Source text: as §1, §2, §3

[5] = target: MMP-14CD (catalytic domain of MMP-14) (Homo sapiens, UniProt P50281); assay: Thiopeptolide hydrolysis inhibition assay, MMP-14CD; settings: thiopeptolide substrate, HEPES pH 7.0, 22° C.
Source text: as §1, §2, §3

[6] = target: T3, MMP-7FL (full-length matrilysin) (Homo sapiens, UniProt P09237); assay: Thiopeptolide hydrolysis inhibition assay, MMP-7FL; settings: thiopeptolide substrate, HEPES pH 7.0, 22° C.
T3 sequence (P09237 95-267): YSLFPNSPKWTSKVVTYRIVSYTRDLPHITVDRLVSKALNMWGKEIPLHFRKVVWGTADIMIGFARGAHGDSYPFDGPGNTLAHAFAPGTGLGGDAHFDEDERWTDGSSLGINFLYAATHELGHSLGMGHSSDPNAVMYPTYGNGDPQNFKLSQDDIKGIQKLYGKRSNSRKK
Source text: as §1, §2, §3

[7] = target: MMP-13CD (catalytic domain of collagenase 3) (Homo sapiens, UniProt P45452); assay: Thiopeptolide hydrolysis inhibition assay, MMP-13CD; settings: thiopeptolide substrate, HEPES pH 7.0, 22° C.
Source text: as §1, §2, §3

MMP-9FL (full-length Gelatinase B), sequence (P14780 94-707, species assumed): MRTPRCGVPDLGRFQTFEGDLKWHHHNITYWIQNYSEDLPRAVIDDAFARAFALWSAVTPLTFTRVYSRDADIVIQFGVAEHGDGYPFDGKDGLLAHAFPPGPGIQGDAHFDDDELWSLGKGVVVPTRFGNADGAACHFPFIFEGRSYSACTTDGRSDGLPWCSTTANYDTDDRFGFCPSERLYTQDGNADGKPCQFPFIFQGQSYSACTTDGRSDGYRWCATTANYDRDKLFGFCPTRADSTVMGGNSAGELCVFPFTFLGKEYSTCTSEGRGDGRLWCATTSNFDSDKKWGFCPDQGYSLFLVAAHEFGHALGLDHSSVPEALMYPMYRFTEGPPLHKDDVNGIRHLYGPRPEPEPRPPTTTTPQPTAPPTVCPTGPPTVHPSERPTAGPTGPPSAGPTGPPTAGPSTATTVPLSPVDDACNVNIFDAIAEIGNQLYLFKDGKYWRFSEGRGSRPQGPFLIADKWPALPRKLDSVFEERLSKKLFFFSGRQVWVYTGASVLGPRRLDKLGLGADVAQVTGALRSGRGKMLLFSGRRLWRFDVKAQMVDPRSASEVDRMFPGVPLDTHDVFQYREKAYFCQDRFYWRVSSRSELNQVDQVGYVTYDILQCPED
MMP-3CD (catalytic domain of stromelysin-1), sequence (P08254 100-272 limits assumed): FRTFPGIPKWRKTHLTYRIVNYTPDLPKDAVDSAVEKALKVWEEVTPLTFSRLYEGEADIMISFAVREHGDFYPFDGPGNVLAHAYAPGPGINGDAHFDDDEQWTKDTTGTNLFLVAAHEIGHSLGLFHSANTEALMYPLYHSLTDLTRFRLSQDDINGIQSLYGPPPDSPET

Compound	IC50 [1] [µM]	IC50 [2] [µM]	IC50 [3] [µM]	IC50 [4] [µM]	IC50 [5] [µM]	IC50 [6] [µM]	IC50 [7] [µM]
CC1(C)SCCN(S(=O)(=O)c2ccc3c(c2)oc2ccccc23)[C@H]1C(=O)O [Example 1, (S)-4-(Dibenzofuran-3-sulfonyl)-2,2-dimethyl-thiomorpholine-3-carboxylic Acid]	1.42	0.041	22.5	0.074	0.064	55	0.97
CC1(C)SCCN(S(=O)(=O)c2ccc3c(c2)oc2ccccc23)[C@H]1C(=O)NO [Example 2, (S)-4-(Dibenzofuran-3-sulfonyl)-2,2-dimethyl-thiomorpholine-3-carboxylic Acid Hydroxyamide]	0.013	0.011	0.21	0.015	0.026	0.2	0.004
CC1(C)SCN(S(=O)(=O)c2ccc3c(c2)oc2ccccc23)[C@@H]1C(=O)O [Example 3, R-3-(Dibenzofuran-3-sulfonyl)-5,5-dimethyl-thiazolidine-4-carboxylic Acid]	100	2.5	150	9.5	10	100	23
CC1(C)SCN(S(=O)(=O)c2ccc3c(c2)oc2ccccc23)[C@@H]1C(=O)NO [Example 4, R-3-(Dibenzofuran-3-sulfonyl)-5,5-dimethyl-thiazolidine-4-carboxylic Acid Hydroxyamide]	6.9	3.2	18	3.9	11	59	1.4
CC1(C)SCCN(S(=O)(=O)c2ccc3c(c2)Cc2ccccc2-3)[C@H]1C(=O)O [Example 5, (S)-4-(9H-Fluorene-2-sulfonyl)-2,2-dimethyl-thiomorpholine-3-carboxylic Acid]	23	0.13	100	0.5	0.84	100	5.1
CC1(C)SCCN(S(=O)(=O)c2ccc3c(c2)Cc2ccccc2-3)[C@H]1C(=O)NO [Example 6, (S)-4-(9H-Fluorene-2-sulfonyl)-2,2-dimethyl-thiomorpholine-3-carboxylic Acid Hydroxyamide]	0.14	0.008	0.55	0.024	0.063	0.88	0.004
CC1(C)SCCN(S(=O)(=O)c2ccc3oc4ccccc4c3c2)[C@H]1C(=O)O [Example 7, (S)-4-(Dibenzofuran-2-sulfonyl)-2,2-dimethyl-thiomorpholine-3-carboxylic Acid]	59	0.21	100	3.9	4	16	11
CC1(C)SCCN(S(=O)(=O)c2ccc3oc4ccccc4c3c2)[C@H]1C(=O)NO [Example 8, (S)-4-(Dibenzofuran-2-sulfonyl)-2,2-dimethyl-thiomorpholine-3-carboxylic Acid Hydroxyamide]	0.017	0.009	0.26	0.015	0.04	0.028	0.003
CC1(C)SCCN(S(=O)(=O)c2ccc3oc4cc(Br)ccc4c3c2)[C@H]1C(=O)O [Example 9, (S)-4-(7-Bromo-dibenzofuran-2-sulfonyl)-2,2-dimethyl-thiomorpholine-3-carboxylic Acid]	70	0.02	65	4	3.8	1.2	0.92
CC1(C)SCCN(S(=O)(=O)c2ccc3oc4cc(Br)ccc4c3c2)[C@H]1C(=O)NO [Example 10, (S)-4-(7-Bromo-dibenzofuran-2-sulfonyl)-2,2-dimethyl-thiomorpholine-3-carboxylic Acid Hydroxyamide]	0.042	0.004	0.066	0.007	0.012	0.031	0.002
COC(=O)c1ccc2c(c1)oc1ccc(S(=O)(=O)N3CCSC(C)(C)[C@@H]3C(=O)O)cc12 [Example 11, (S)-4-(7-Methoxycarbonyl-dibenzofuran-2-sulfonyl)-2,2-dimethyl-thiomorpholine-3-carboxylic Acid]	100	0.094	69	5.2	20	3.5	4.6
COC(=O)c1ccc2c(c1)oc1ccc(S(=O)(=O)N3CCSC(C)(C)[C@@H]3C(=O)NO)cc12 [Example 12, (S)-4-(7-Methoxycarbonyl-dibenzofuran-2-sulfonyl)-2,2-dimethyl-thiomorpholine-3-carboxylic Acid Hydroxyamide]	0.15	0.006	0.047	0.017	0.095	0.029	0.005
CC1(C)SCCN(S(=O)(=O)c2ccc3oc4cc([N+](=O)[O-])ccc4c3c2)[C@H]1C(=O)O [Example 13, (S)-2,2-Dimethyl-4-(7-nitro-dibenzofuran-2-sulfonyl)-thiomorpholine-3-carboxylic Acid]	60	1	100	33	15	1.6	2.7
CC1(C)SCCN(S(=O)(=O)c2ccc3oc4cc([N+](=O)[O-])ccc4c3c2)[C@H]1C(=O)NO [Example 14, (S)-2,2-Dimethyl-4-(7-nitro-dibenzofuran-2-sulfonyl)-thiomorpholine-3-carboxylic Acid Hydroxyamide]	0.012	0.005	0.19	0.022	0.024	0.038	0.002
CC1(C)[C@H](C(=O)NO)N(S(=O)(=O)c2ccc3oc4ccccc4c3c2)CCS1(=O)=O [Example 15, (S)-4-(Dibenzofuran-2-sulfonyl)-2,2-dimethyl-1,1-dioxo-thiomorpholine-3-carboxylic Acid Hydroxyamide]	0.033	0.008	1.8	0.25	0.098	0.032	0.013

— US6559142B2, “Sulfonamide matrix metalloproteinase inhibitors” (Warner-Lambert Company, priority 2001, dated 2003)
